Test system: Male Wistar rats
Assay: p-PCA-induced ejaculation in anesthetized rats (ejaculation-delaying effect)
Format: in vivo, rat
Conditions: for Ratio: Number of responding animals/total animal number: 50 mg/kg oral in 1% HPMC, p-PCA 5 mg/kg i.p. 80 min later, observed 30 min; for Latency: Time to display the ejaculatory response: 50 mg/kg oral, p-PCA 5 mg/kg i.p., mean ± standard deviation of responding rats
Procedure: The compounds prepared in the above examples were evaluated to determine whether they have an effect of delaying ejaculation. The evaluation was carried out using an animal model according to a method described in Yonezawa et al., Life Sci. 2000, 67(25) p 3031-9. Male Wistar rats weighing 240-260 g were used. Each compound was suspended in 1% HPMC, and then administered orally to each animal. After 60 min, the animals were anesthetized and fixed. 20 min later, para-chloroamphetamine (p-PCA) was intraperitoneally administered in a dose of 5 mg/kg in order to induce ejaculation. […] An ejaculatory response was considered to be elicited when rhythmic contraction of bulbocavernosus muscles and semen discharge occurs. Six or more animals were used for each compound. A Fisher's […] test was performed for the comparison of the proportion of responding rats (ejaculated rats) to determine significance of difference between a treatment group and a vehicle control. The time to reach ejaculation was expressed as mean±standard deviation.
Each test compound was administered at a dose of 50 mg/kg. Ejaculation was elicited in all seven animals of a control group.

Row | SMILES | Ratio: Number of responding animals/total animal number | Latency: Time to display the ejaculatory response [s]
1 | CN(C)CCCC1(c2ccccc2)OCc2cc(C#N)ccc21 (centres unmarked) [Ex. 12, 1-{3-(dimethylamino)propyl}-1-phenyl-1,3-dihydro-5-isobenzofurancarbonitrile] | 4/9 | 1025 ± 189
2 | Cl.N#Cc1ccc2c(c1)COC2(CCCn1ccnc1)c1cccs1 (centres unmarked) [Ex. 46, 1-{3-(imidazole-1-yl)propyl}-1-(2-thienyl)-1,3-dihydro-5-isobenzofurancarbonitrile hydrochloride] | 0/7 | –
3 | CN(C)CCCC1(c2cccs2)OCc2cc(C#N)ccc21 (centres unmarked) [Ex. 39, 1-{3-(dimethylamino)propyl}-1-(2-thienyl)-1,3-dihydro-5-isobenzofurancarbonitrile] | 5/9 | 854 ± 287
4 | COc1ccc(C2(CCn3ccnc3)OCc3cc(C#N)ccc32)cc1.Cl (centres unmarked) [Ex. 7, 1-{2-(imidazole-1-yl)ethyl}-1-(4-methoxyphenyl)-1,3-dihydro-5-isobenzofurancarbonitrile hydrochloride] | 5/9 | 963 ± 304
5 | COc1ccc(C2(CCCN(C)C)OCc3cc(C#N)ccc32)cc1 (centres unmarked) [Ex. 1, 1-(4-methoxyphenyl)-1-{3-(dimethylamino)propyl}-1,3-dihydro-5-isobenzofurancarbonitrile] | 5/9 | 1024 ± 256
6 | N#Cc1ccc2c(c1)COC2(CCCn1ccnc1)c1ccc(Cl)cc1 (centres unmarked) [Ex. 61, 1-(4-chlorophenyl)-1-{3-(imidazole-1-yl)propyl}-1,3-dihydro-5-isobenzofurancarbonitrile] | 3/7 | 930 ± 247
7 | Cc1ccc(C2(CCn3cccn3)OCc3cc(C#N)ccc32)cc1.Cl (centres unmarked) [Ex. 33, 1-{2-(pyrazole-1-yl)ethyl}-1-(4-tolyl)-1,3-dihydro-5-isobenzofurancarbonitrile hydrochloride] | 3/7 | 698 ± 374
8 | CN(C)CCC1(c2cccs2)OCc2cc(C#N)ccc21.Cl (centres unmarked) [Ex. 43, 1-{2-(dimethylamino)ethyl}-1-(2-thienyl)-1,3-dihydro-5-isobenzofurancarbonitrile hydrochloride] | 3/7 | 888 ± 275
9 | COc1ccc(C2(CCCn3ccnc3)OCc3cc(C#N)ccc32)cc1 (centres unmarked) [Ex. 4, 1-{3-(imidazole-1-yl)propyl}-1-(4-methoxyphenyl)-1,3-dihydro-5-isobenzofurancarbonitrile] | 4/9 | 1300 ± 124
10 | COc1ccc(C2(CCn3cccn3)OCc3cc(C#N)ccc32)cc1.Cl (centres unmarked) [Ex. 11, 1-(4-methoxyphenyl)-1-{2-(pyrazole-1-yl)ethyl}-1,3-dihydro-5-isobenzofurancarbonitrile hydrochloride] | 3/7 | 974 ± 289
11 | Cl.N#Cc1ccc2c(c1)COC2(CCn1cccn1)c1ccc(Cl)cc1 (centres unmarked) [Ex. 68, 1-(4-chlorophenyl)-1-{2-(pyrazole-1-yl)ethyl}-1,3-dihydro-5-isobenzofurancarbonitrile hydrochloride] | 4/9 | 908 ± 274
12 | Cc1ccc(C2(CCN(C)C)OCc3cc(C#N)ccc32)cc1 (centres unmarked) [Ex. 24, 1-{2-(dimethylamino)ethyl}-1-(4-tolyl)-1,3-dihydro-5-isobenzofurancarbonitrile] | 3/7 | 1021 ± 367
13 | Cl.N#Cc1ccc2c(c1)COC2(CCn1ccnc1)c1ccc(F)cc1 (centres unmarked) [Ex. 56, 1-(4-fluorophenyl)-1-{2-(imidazole-1-yl)ethyl}-1,3-dihydro-5-isobenzofurancarbonitrile hydrochloride] | 2/6 | 606 ± 130
14 | N#Cc1ccc2c(c1)COC2(CCn1ccnc1)c1ccc(Cl)cc1 (centres unmarked) [Ex. 63, 1-(4-chlorophenyl)-1-{2-(imidazole-1-yl)ethyl}-1,3-dihydro-5-isobenzofurancarbonitrile] | 3/7 | 904 ± 307
15 | Cl.N#Cc1ccc2c(c1)COC2(CCCn1ccnc1)c1ccc(F)cc1 (centres unmarked) [Ex. 54, 1-(4-fluorophenyl)-1-{3-(imidazole-1-yl)propyl}-1,3-dihydro-5-isobenzofurancarbonitrile hydrochloride] | 5/9 | 1247 ± 352
16 | Cl.N#Cc1ccc2c(c1)COC2(CCn1ccnc1)c1ccc(Cl)cc1 (centres unmarked) [Ex. 64, 1-(4-chlorophenyl)-1-{2-(imidazole-1-yl)ethyl}-1,3-dihydro-5-isobenzofurancarbonitrile hydrochloride] | 4/7 | 1032 ± 299
17 | N#Cc1ccc2c(c1)COC2(CCn1cccn1)c1ccc(F)cc1 (centres unmarked) [Ex. 59, 1-(4-fluorophenyl)-1-{2-(pyrazole-1-yl)ethyl}-1,3-dihydro-5-isobenzofurancarbonitrile] | 3/7 | 954 ± 287
18 | CN(C)c1ccc(C2(CCCn3ccnc3)OCc3cc(C#N)ccc32)cc1.Cl (centres unmarked) [Ex. 38, 1-(4-dimethylaminophenyl)-1-{3-(imidazole-1-yl)propyl}-1,3-dihydro-5-isobenzofurancarbonitrile hydrochloride] | 4/7 | 764 ± 304
19 | Cc1ccc(C2(CCCn3cccn3)OCc3cc(C#N)ccc32)cc1.Cl (centres unmarked) [Ex. 31, 1-{3-(pyrazole-1-yl)propyl}-1-(4-tolyl)-1,3-dihydro-5-isobenzofurancarbonitrile hydrochloride] | 3/9 | 754 ± 401
20 | Cc1ccc(C2(CCCn3ccnc3)OCc3cc(C#N)ccc32)cc1 (centres unmarked) [Ex. 26, 1-{3-(imidazole-1-yl)propyl}-1-(4-tolyl)-1,3-dihydro-5-isobenzofurancarbonitrile] | 4/7 | 904 ± 304
21 | COc1ccc(C2(CCn3ccnc3)OCc3cc(C#N)ccc32)cc1 (centres unmarked) [Ex. 6, 1-{2-(imidazole-1-yl)ethyl}-1-(4-methoxyphenyl)-1,3-dihydro-5-isobenzofurancarbonitrile] | 4/7 | 889 ± 284
22 | Cc1ccc(C2(CCN(C)C)OCc3cc(C#N)ccc32)cc1.Cl (centres unmarked) [Ex. 25, 1-{2-(dimethylamino)ethyl}-1-(4-tolyl)-1,3-dihydro-5-isobenzofurancarbonitrile hydrochloride] | 4/9 | 841 ± 254
23 | COc1ccc(C2(CCn3cccn3)OCc3cc(C#N)ccc32)cc1 (centres unmarked) [Ex. 10, 1-(4-methoxyphenyl)-1-{2-(pyrazole-1-yl)ethyl}-1,3-dihydro-5-isobenzofurancarbonitrile] | 4/9 | 889 ± 360
24 | Cl.N#Cc1ccc2c(c1)COC2(CCn1cccn1)c1cccs1 (centres unmarked) [Ex. 52, 1-{2-(pyrazole-1-yl)ethyl}-1-(2-thienyl)-1,3-dihydro-5-isobenzofurancarbonitrile hydrochloride] | 3/7 | 869 ± 274
25 | N#Cc1ccc2c(c1)COC2(CCn1ccnc1)c1cccs1 (centres unmarked) [Ex. 47, 1-{2-(imidazole-1-yl)ethyl}-1-(2-thienyl)-1,3-dihydro-5-isobenzofurancarbonitrile] | 4/7 | 814 ± 278
26 | COc1ccc(C2(CCCn3cccn3)OCc3cc(C#N)ccc32)cc1.Cl (centres unmarked) [Ex. 9, 1-(4-methoxyphenyl)-1-{3-(pyrazole-1-yl)propyl}-1,3-dihydro-5-isobenzofurancarbonitrile hydrochloride] | 4/7 | 950 ± 245
27 | Cl.N#Cc1ccc2c(c1)COC2(CCCn1ccnc1)c1ccc(Cl)cc1 (centres unmarked) [Ex. 62, 1-(4-chlorophenyl)-1-{3-(imidazole-1-yl)propyl}-1,3-dihydro-5-isobenzofurancarbonitrile hydrochloride] | 4/7 | 888 ± 284
